The experiment addresses ROCK2 (human) (UniProt O75116). As to the kind of experiment: Inhibition of ROCK2 Kinase Activity.

Consider 13 compounds from the Kinase Knowledgebase extract (Sharma et al. 2016).

For orientation: IC50 means the midpoint of a concentration-inhibition curve. The low end stands for higher potency, the high end for lower potency.

Chain of ROCK2 (human) (O75116 whole entry, looked up): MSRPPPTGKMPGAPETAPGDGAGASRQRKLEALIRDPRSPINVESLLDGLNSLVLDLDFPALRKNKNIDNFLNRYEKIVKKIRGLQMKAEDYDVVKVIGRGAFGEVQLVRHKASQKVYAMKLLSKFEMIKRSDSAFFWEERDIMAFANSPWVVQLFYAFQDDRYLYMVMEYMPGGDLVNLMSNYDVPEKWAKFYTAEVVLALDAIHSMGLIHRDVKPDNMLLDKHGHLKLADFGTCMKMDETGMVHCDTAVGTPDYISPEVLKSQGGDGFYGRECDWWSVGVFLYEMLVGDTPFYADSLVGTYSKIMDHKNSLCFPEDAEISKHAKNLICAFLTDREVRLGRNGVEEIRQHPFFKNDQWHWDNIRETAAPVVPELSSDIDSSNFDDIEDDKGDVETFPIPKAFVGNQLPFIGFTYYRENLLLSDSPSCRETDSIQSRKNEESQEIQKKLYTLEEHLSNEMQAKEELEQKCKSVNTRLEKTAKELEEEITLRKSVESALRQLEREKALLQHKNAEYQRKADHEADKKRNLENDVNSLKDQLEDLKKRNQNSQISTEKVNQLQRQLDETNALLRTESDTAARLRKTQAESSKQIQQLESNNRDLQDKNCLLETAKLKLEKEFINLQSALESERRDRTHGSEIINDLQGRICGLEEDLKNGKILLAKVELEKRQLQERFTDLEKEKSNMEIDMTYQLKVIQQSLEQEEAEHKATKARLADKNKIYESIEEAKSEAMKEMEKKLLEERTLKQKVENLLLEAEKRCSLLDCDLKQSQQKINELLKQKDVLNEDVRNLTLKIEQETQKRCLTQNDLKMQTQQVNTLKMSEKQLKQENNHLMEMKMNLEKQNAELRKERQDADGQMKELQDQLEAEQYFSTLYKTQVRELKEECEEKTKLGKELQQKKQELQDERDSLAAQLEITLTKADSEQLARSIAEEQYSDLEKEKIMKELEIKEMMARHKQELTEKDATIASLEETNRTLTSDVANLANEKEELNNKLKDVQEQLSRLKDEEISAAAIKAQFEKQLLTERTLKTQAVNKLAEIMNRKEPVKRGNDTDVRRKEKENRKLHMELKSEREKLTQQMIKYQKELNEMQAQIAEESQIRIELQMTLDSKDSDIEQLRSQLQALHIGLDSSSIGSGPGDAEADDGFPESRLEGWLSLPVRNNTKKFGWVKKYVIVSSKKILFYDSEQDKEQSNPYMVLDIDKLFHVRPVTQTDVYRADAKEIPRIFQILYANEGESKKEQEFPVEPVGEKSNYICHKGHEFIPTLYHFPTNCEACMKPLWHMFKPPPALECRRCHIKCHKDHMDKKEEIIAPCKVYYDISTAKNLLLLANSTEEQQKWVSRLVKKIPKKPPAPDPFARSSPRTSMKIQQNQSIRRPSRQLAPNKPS

`COc1cc(Nc2cc3cc(OC4CCNCC4)ccc3cn2)cc(OC)c1OC` registered an IC50 of at most 1000 nM.
For `Cc1cc(OC2CCNCC2)c(C)c2ccncc12` the value was at most 1000 nM; for `Brc1c(OC2CCNCC2)ccc2cnccc12`, at most 1000 nM; for `Clc1cncc2ccc(OC3CCNCC3)cc12`, at most 1000 nM.
Take `c1ccc2oc(-c3c(OC4CCNCC4)ccc4cnccc34)cc2c1`: the IC50 is at most 1000 nM.
For `CN1CCCC(COc2ccc3cnccc3c2Br)C1` (stereo not drawn) the value was at most 1000 nM.
As for `Clc1cc(OC2CCNCC2)cc2ccncc12`, the figure is at most 1000 nM; as for `Ic1c(OC2CCNCC2)ccc2cnccc12`, at most 1000 nM.
Turning to `COc1ccc2cc(CN3CCC(Oc4ccc5cnccc5c4)CC3)ccc2c1`, the IC50 was at most 1000 nM.
As for `c1cc2c(cc1Nc1cc3cc(OC4CCNCC4)ccc3cn1)OCO2`, the figure is at most 1000 nM.
For `Clc1cc2cnccc2c(Cl)c1OC1CCNCC1` the value was at most 1000 nM.
For `COc1ccc(-c2c(OC3CCNCC3)ccc3cnccc23)cc1N` the value was at most 1000 nM; for `c1ccc(-c2cc3cnccc3cc2OC2CCNCC2)cc1`, at most 1000 nM.
